Results taken from article PMC10600247, “Impact of C- and N-terminal protection on the stability, metal chelation and antimicrobial properties of calcitermin” (Scientific Reports, 2023).
Residues, ends and D or L forms follow the SMILES beside them.

Test: Potentiometry: protonation of the ligand
Assay type: physicochemical
Details: T = 298 K, I = 0.1 M (KCl)
Description: Stability constants for proton and metal complexes were obtained from pH-metric titration curves registered at T = 298 K and ionic strength 0.1 M (KCl). The potentiometric apparatus was previously described. Solutions were titrated with 0.1 M carbonate-free KOH. The electrode was daily calibrated for hydrogen ion concentration by titrating HNO3 with the standard base solution, under the same experimental conditions as above. The asymmetry potential and the slope of the electrode couple were computed by means of […][41] and Glee[42] programs. The purities and exact concentrations of the ligand solutions were determined by the Gran method. The […][44] program was employed for the overall formation constant (β) calculations, referred to the following equilibrium equation: pM + qL + rH ⇆ MpLqHr (charges omitted; p is 0 in the case of ligand protonation; r can be negative). The computed standard deviations (referring to random errors only) were given by the program itself and are shown in parentheses as uncertainties on the last significant figure. Hydrolysis constants for metal ions were taken from the literature[45],[46]. The distribution and competition diagrams were computed using the HYSS program.
1. Wild-type calcitermin: thermodynamic data
Wild-type calcitermin (WT) has been previously investigated by our research group in aqueous solutions and ionic medium NaClO4.1 For the sake of comparison, potentiometric studies of WT and its copper and zinc complexes have been performed in a different ionic medium (KCl 0.1 M). The study of the speciation under different experimental conditions, changing ionic medium and metal-ligand ratio, is essential to comprehensively describe the thermodynamics of calcitermin, which is usually found in multicomponent media like biological fluids.
Table S1. Equilibrium constants for protonation of WT and its Cu2+ and Zn2+ complex formation at T = 298 K and I = 0.1 M (KCl). Values in parentheses are standard deviations on the last significant figure.

## CC[C@H](C)[C@H](NC(=O)[C@H](C)NC(=O)[C@@H](N)C(C)C)C(=O)N[C@@H](C)C(=O)N[C@@H](CC(C)C)C(=O)N[C@@H](CCCCN)C(=O)N[C@@H](C)C(=O)N[C@@H](C)C(=O)N[C@@H](Cc1c[nH]cn1)C(=O)N[C@@H](Cc1ccc(O)cc1)C(=O)N[C@@H](Cc1c[nH]cn1)C(=O)N[C@H](C(=O)N[C@@H](Cc1c[nH]cn1)C(=O)N[C@@H](CCCCN)C(=O)N[C@@H](CCC(=O)O)C(=O)O)[C@@H](C)O [WT, VAIALKAAHYHTHKE, reference compound] (H-VAIALKAAHYHTHKE-OH)
  protonation logK H2L: 10.53
  protonation logK H3L: 9.50
  protonation logK H4L: 7.73
  protonation logK H5L: 6.93
  protonation logK H6L: 6.33
  protonation logK H7L: 5.65
  protonation logK H8L: 4.22
  protonation logK H9L: 2.93
  protonation logK HL: 10.61
  protonation logβ H2L: 21.14(2)
  protonation logβ H3L: 30.64(4)
  protonation logβ H4L: 38.38(4)
  protonation logβ H5L: 45.31(4)
  protonation logβ H6L: 51.64(4)
  protonation logβ H7L: 57.29(4)
  protonation logβ H8L: 61.51(4)
  protonation logβ H9L: 64.44(5)
  protonation logβ HL: 10.61(6)
